# Results from patent publication EP0306167A2, “Stabilization of enzymes by inhibiting proteolytic enzyme contaminants” (TECHNICON INSTRUMENTS CORPORATION(a Delaware corporation), priority 1987, dated 1989).
# Entries after “also recorded” stand apart in the source; their conditions may differ. Like-named read-outs stand apart in the source and are kept apart here.
# How the values were obtained:
# PGM/PAGM enzyme solution = test: Stability of PGM/PAGM enzyme solution on storage with protease inhibitors (coupled glucose-6-phosphate dehydrogenase rate assay at 340 nm); format: biochemical, Porcine; conditions: for stabilizing effect compared between inhibitors (in words) / time enzyme activity was protected: DEAE-Tris acryl purified preparation, 4°C; for stabilizing effect compared between inhibitors (in words): pH 7.5, aprotinin .5 mg/ml, leupeptin 0.5 mg/ml, α,α′-bipyridal 2 mM; for effect on PGM/PAGM activity (in words): TPCK 2mM; for time enzyme activity was protected: 50 mM imidazole chloride pH 7.5, p-aminobenzamidine 5mM, benzamidine 5mM
# Description: The presence of proteases was detected pursuant to the protocol discussed above. The quantitative assay for protease activity was done with N-α - benzoyl-L-arginine-p-nitroanalide as a substrate by a published procedure (H. Fritz, I. Truntschold and E. Werle; "Methods of Enzymatic Analysis", Ed. H. Bergmeyer, Vol. II, Academic Press, N.4. 1974). The method consist of (1) 0.2M triethanolamine buffer (pH 7.8) with 20 mM CaCl₂, (2) trypsin standard in 1 mM HCl, (3) substrate solution, 2.2 mM in water. The sensitivity can be enhanced four-fold if the concentration of the substrate was increased five times. A clear solution of the substrate was obtained by placing it in a boiling water bath for 5 minutes. The reaction mixture consisted of a .675 ml buffer and 0.325 ml substrate solution. The rate was measured at 405 nm at 37°C on a DU 8 spectrophotometer from Beckman Instruments, Inc. It was possible to detect protease activity equivalent to 1 mg/L trypsin when the standard trypsin was activity of 11000 u/mg with substrate N-α-benzoyl-L-arginine p-nitroanalide. The activity of the PGM/PAGM enzyme solution was determined using the following reaction mixture. NAD⁺, 10⁻³M; glucose-1-phosphate, 2x10⁻⁴M; glucose-1,6-diphosphate, 10⁻⁵M; Mg Acetate, 2 x 10⁻³M; EDTA, 2 x 10⁻⁴M and 1 u/ml glucose-6-phosphate dehydrogenase in 50 mM imidazole acetate, pH 7.5. The reaction was started by adding an aliquot of the enzyme solution and the rate was measured 37°C at 340 nm on a DU-8 spectro- photometer. This method is essentially similar to the literature procedures (W. Ray and E. Peck, The Enzymes, 6, 407, 1972. H. Bergmeyer, "Methods of Enzymatic Analysis" Ed. H. Bergmeyer Vol. I, Academic Press, N.Y. 1974).
# A series of experiments were done to determine the stabilizing effect of various inhibitors. In one experiment the enzyme preparation included was 30-70% ammonium sulfate fraction. The effects of soya bean trypsin inhibitor (10 mg/ml), tosyl phenyl chloromethyl ketone (TPCK) (2mM) and α-antitrypsin inhibitor (2 mg/ml) were studied at pH 5.0 and 7.5, in 50 mM imidazole acetate buffer; 0.2 mM EDTA, 10 mM magnesium acetate. The stability was done at two pH values as the formation and dissociation of the inhibitor complex with trypsin is pH dependent. […] PAGM enzyme may also have serine residues at the active site. […] There was some protection afforded by α-antitrypsin inhibitor over longer periods of time at pH 7.5.
# In another experiment, the enzyme preparation after ammonium sulfate fractionation was purified through DEAE-Tris acryl column chromatography. […] These trace amounts of proteases were sufficient to cause denaturation of the enzyme. A stability study using various inhibitors of proteases: aprotinin (.5 mg/ml), soybean trypsin inhibitor (5 mg/ml), p-aminobenzamidine (5mM), benzamidine (5mM), α,α′-bipyridal (2 mM) and leupeptin (0.5 mg/ml) was done. The enzyme was stored at 4°C in 50 mM imidazole chloride, 2 mM Mg acetate and .2 mM EDTA, pH 7.5. The activity was assayed at different times. […] The enzymes were stable in the presence of soya bean trypsin inhibitor for one week.
# [1] = tested on: phosphoenol pyruvate carboxylase; test: Stability of phosphoenol pyruvate carboxylase on storage with protease inhibitors (activity assay on TECHNICON RA-1000); format: biochemical; conditions: for Percent Activity Remaining at Time (hrs.): about 20 mg/ml enzyme, Benzamidine 4mM, p-Amino benzamidine 4mM, TPCK 0.5mM, Soya Bean Trypsin Inhibitor 10 mg/ml, Egg white Trypsin Inhibitor 10 mg/ml, BSA 20mg/ml, Aprotinin 0.5 mg/ml, PMSF 1 mM
# Description: The activity assays to determine the stability of phosphoenol pyruvate carboxylase were done on a TECHNICON RA-1000 clinical analyzer in accordance with established protocols for such analysis. (TECHNICON RA-1000 is a registered trademark of Technicon Instruments Corporation, Tarrytown, N.Y.) In accordance with such protocol, the enzyme solution, R₂, was placed in the sample cup. The other constituents of the assay mixture, R₁, were placed in the reagent boat. 10 µl of R₂ were mixed with 350 µl of R₁. The reaction was done at 37°C and there was a 30 second incubation period before the readings were taken. The reported activity remaining refers to the percentage of the activity determined when fresh solutions were made initially.
# The solid enzyme samples were dissolved in 50 mM Hepes, pH 7.0 containing 0.1% benzoic and .01% gentamicin (R₂). The stability study was done in R₂ containing about 20 mg/ml enzyme at room temperature. The ratio of soya bean trypsin inhibitor to phosphoenol pyruvate by weight mg/ml was 10:20. The specific activity of soya bean was 7000 BAEE inhibitor units/mg and that of phosphoenol pyruvate was one unit/mg. The components of the activity assay were in R₁ as NADH, 1.3 x 10⁻⁴M; phosphoenol pyruvate, 2.5 x 10⁻³M; magnesium acetate, 1.06 x 10⁻²M and NaHCO₃, 5 x 10⁻³M; were in 104 mM tris-acetate pH 8.3 (at room temperature).
# The samples were stored at room temperature in 50 mM Hepes buffer pH 7.0 containing 0.1% benzoate acid .01% gentamycin. […]
# [2] = 20 Hrs, absence of (NH₄)₂SO₄, PMSF 1mM, α-Antitrypsin Inhibitor 5 mg/ml, p-Nitrophenyl-p-Guanidinobenzoate 0.1mg/ml, Ovomucoid 10 mg/ml, D-Tryptophan methyl ester 5mM, 4-Phenyl butylamine 10mM, D-Arginine 10mM, D-phenylalanine 5mM, control 35
# [3] = 25 Hrs, absence of (NH₄)₂SO₄, PMSF 1mM, α-Antitrypsin Inhibitor 5 mg/ml, p-Nitrophenyl-p-Guanidinobenzoate 0.1mg/ml, Ovomucoid 10 mg/ml, D-Tryptophan methyl ester 5mM, 4-Phenyl butylamine 10mM, D-Arginine 10mM, D-phenylalanine 5mM, control 26
# [4] = 2.5 hrs at room temperature in R2 (50 mM Hepes pH 7.0), control 80
# [5] = 5 hrs at room temperature in R2 (50 mM Hepes pH 7.0), control 80
# [6] = 23 hrs at room temperature in R2 (50 mM Hepes pH 7.0), control 25
# [7] = 20 Hrs, in presence of (NH₄)₂SO₄ (50 mM), inhibitor concentrations as without salt (PMSF 1mM, α-Antitrypsin Inhibitor 5 mg/ml, p-Nitrophenyl-p-Guanidinobenzoate 0.1mg/ml, Ovomucoid 10 mg/ml, D-Tryptophan methyl ester 5mM)
# [8] = 25 Hrs, in presence of (NH₄)₂SO₄ (50 mM), inhibitor concentrations as without salt (PMSF 1mM, α-Antitrypsin Inhibitor 5 mg/ml, p-Nitrophenyl-p-Guanidinobenzoate 0.1mg/ml, Ovomucoid 10 mg/ml, D-Tryptophan methyl ester 5mM)
# [9] = NaCl up to 200 mM replacing (NH₄)₂SO₄ with 10 mg/ml ovomucoid, phosphoenol pyruvate 5 mM
SMILES,"Percent Activity Remaining at Time (Hrs.) [1, 2] [%]","Percent Activity Remaining at Time (Hrs.) [1, 3] [%]","Percent Activity Remaining at Time (hrs.) [1, 4] [%]","Percent Activity Remaining at Time (hrs.) [1, 5] [%]","Percent Activity Remaining at Time (hrs.) [1, 6] [%]",other results
CC(=O)N[C@@H](CC(C)C)C(=O)N[C@@H](CC(C)C)C(=O)N[C@H](C=O)CCCNC(=N)N [Leupeptin],,,,,,stabilizing effect compared between inhibitors (in words) (PGM/PAGM enzyme solution): equally effective
N[C@H](Cc1ccccc1)C(=O)O [D-phenylalanine],57,51,,,,
Cc1ccc(S(=O)(=O)N[C@@H](Cc2ccccc2)C(=O)CCl)cc1 [TPCK],,,74,68,28,"effect on PGM/PAGM activity (in words) (PGM/PAGM enzyme solution; pH 5.0, 30-70% ammonium sulfate fraction): destroyed the activity sooner than the control; effect on PGM/PAGM activity (in words) (PGM/PAGM enzyme solution; pH 7.5, 30-70% ammonium sulfate fraction, soya bean trypsin inhibitor 10 mg/ml, α-antitrypsin inhibitor 2 mg/ml): did not show any additional inactivation"
"c1ccc(-c2ccccn2)nc1 [α,α′-bipyridal]",,,,,,stabilizing effect compared between inhibitors (in words) (PGM/PAGM enzyme solution): least effective
NCCCCc1ccccc1 [4-Phenyl butylamine],57,51,,,,
N=C(N)c1ccccc1 [Benzamidine],,,83,83,32,time enzyme activity was protected (PGM/PAGM enzyme solution): 5 days
N=C(N)c1ccc(N)cc1 [p-Amino benzamidine],,,75,75,28,time enzyme activity was protected (PGM/PAGM enzyme solution): 14 days
N=C(N)NCCC[C@@H](N)C(=O)O [D-Arginine],30,24,,,,
N=C(N)Nc1ccc(C(=O)Oc2ccc([N+](=O)[O-])cc2)cc1 [p-Nitrophenyl-p-Guanidinobenzoate],42,36,,,,"Percent Activity Remaining at Time (Hrs.) [1, 7]: 60%; Percent Activity Remaining at Time (Hrs.) [1, 8]: 57%"
[Cl-].[Na+] [NaCl],,,,,,stabilizing effect on phosphoenol pyruvate carboxylase (in words) [1]: negligible
C=C(OP(=O)(O)O)C(=O)O [phosphoenol pyruvate],,,,,,"stabilizing effect on phosphoenol pyruvate carboxylase (in words) [1, 9]: unstable"
COC(=O)[C@H](N)Cc1c[nH]c2ccccc12 [D-Tryptophan methyl ester],32,26,,,,"Percent Activity Remaining at Time (Hrs.) [1, 7]: 68%; Percent Activity Remaining at Time (Hrs.) [1, 8]: 71%"
"O=S(=O)(F)Cc1ccccc1 [PMSF, phenyl methyl sulfonyl fluoride]",71,61,87,89,56,"Percent Activity Remaining at Time (Hrs.) [1, 7]: 90%; Percent Activity Remaining at Time (Hrs.) [1, 8]: 88%; stabilizing effect on phosphoenol pyruvate carboxylase (in words) [1, 9]: especially effective; also recorded: most effective stabilizer; original activity ([1]; PMSF in combination with ammonium sulfate, for 24 hours): 88%; Effectiveness ([1]; protection of PEPC activity, comparison of all effective inhibitors): 24 to 48 h"
